Data as given in patent US20260373103A1, “COMPOSITIONS AND METHODS FOR PREVENTING CARDIOMYOPATHY” (OHIO STATE INNOVATION FOUNDATION, priority 2022, published 2026).

How the values were obtained:
[1] = tested on: NDP52; test: NDP52 level after A/O, immunoblotting; type: cell-based; settings: Parkin positive cells, A/O 18 h, ST-539 3 μg/ml; not in WT HeLa or PINK1 KO cells
Experimental: HeLa cells and mouse embryonic fibroblasts (MEFs) were grown in Dulbecco's minimum essential medium (DMEM) with 10% fetal bovine serum (FBS) supplemented with penicillin-streptomycin. HeLa Parkin, PINK1 KO cells, WT and MFN2 KO cells were previously described. Cells stably expressing USP30 were generated using lentiviral vectors of pLVX-Puro-Myc-USP30. The USP30 plasmid was obtained from Addgene. The plasmid was transferred into a lentiviral vector and viral particles were prepared by transiently transfecting HEK293T using standard methods. For the drug treatment experiments, cells were incubated in medium containing a mixture of 5 μM oligomycin and 5 μM antimycin A (A/O; see figures for treatment times). In 18 h treatment, A/O were used in combination with 10 μM quinolyl-valyl-O-methylaspartyl-[−2,6-difluorophenoxy]-methyl ketone (QVD), a broad-spectrum caspase inhibitor. […]
Genetic suppression of USP30 in Parkin-overexpressing cells promotes the clearance of mitochondria in response to mitochondrial depolarizing agents. […] To investigate if the PINK 1/Parkin pathway is required for ST-539 induced mitophagy, we analyzed TOM20 ubiquitination in wild-type (WT) HeLa cells, which express little to no endogenous Parkin, as well as in WT and PINK1 knockout (KO) HeLa cells stably expressing YFP-tagged Parkin. […]

[2] = tested on: LC3-II/LC3-I; test: LC3 I/II immunoblotting of heart tissue; type: in vivo, mice; settings: 25 mg/kg/day i.p. for 5 days
Experimental: Cells were lysed in RIPA buffer (50 mM Tris-HCl, at pH 8.0; 150 mM NaCl; 1% (vol/vol) Nonidet P-40; 0.5% sodium deoxycholate, 0.1% SDS and protease inhibitor cocktail (Roche)) on ice. Primary antibodies were used at the following concentrations: USP30 (Santa Cruz, sc-515235, 1:200); TOM20 (Cell Signaling Technology, 42406S, 1:1000); TOM40 (Proteintech, 18409-1-AP, 1:1000); NDP52 (Cell Signaling Technology, 60732S, 1:1000); TIM23 (Proteintech, 11123-1-AP, 1:500); LC3A/B (Cell Signaling Technology, 4108S, 1:1000); GAPDH (Cell Signaling Technology, 5175S, 1:1000); PINK1 (Cell Signaling Technology, 6946S, 1:1000); ACTIN (Cell Signaling Technology, 3700S, 1:1000). The membranes were incubated with anti-rabbit (LI-COR, 926-32211, 1:15000) or anti-mouse (LI-COR, 926-68072, 1:15000) IgG secondary antibodies for 1 h at room temperature. Images were captured using the Odyssey system (LI-Cor). One representative blot is shown of three independent experiments.
(§1) The mt-Keima mouse. […] The mice were lightly anesthetized with isoflurane and the ejection fraction, fractional shortening, and ventricular chamber dimensions were determined using 2-D-guided M mode images. Ejection fraction, fractional shortening, ventricular chamber dimensions, and left ventricular mass were calculated automatically using the VevoLAB program. […]

[3] = Tissue concentrations 24 h post-dose; type: in vivo, Male C57BL/6 Mice
Experimental: ST-539 was dissolved into 1% DMSO in Sesame oil and injected intraperitoneally (i.p.) at doses of 25 mg/kg. Serial blood samples were collected at 0.083, 0.25, 0.5, 1, 2, 4 and 8 hours post dosing. Mice were euthanized at 24 hours post dosing. A terminal blood sample was collected by cardiac puncture followed by harvesting the brain and heart. Transcardial perfusion was performed prior to brain collection. The blood samples were placed in microtubes pretreated with K2EDTA as an anticoagulant and kept on ice until centrifugation. The tissue samples were rinsed using cold distilled water to remove blood, blotted dry, weighed and stored on dry ice until LC/MS/MS analysis. Plasma was transferred into polypropylene tubes or 96-well plates, quick frozen on dry ice, and stored at −70±10 °C until LC/MS/MS analysis.

[4] = tested on: hippocampus of the brain; test: In vivo mitophagy in hippocampus of the brain; set-up: species or system mouse; settings: 25 mg/kg/day i.p. for 5 days
Experimental: Fluorescent samples were examined with a Zeiss LSM 780 confocal microscope (Carl Zeiss MicroImaging). As previously described^2, fluorescence of mt-Keima was imaged in two channels via two sequential excitations (458 nm, green; 561 nm, red) and using a 570- to 695-nm emission range. Confocal experiments for parkin translocation were performed using a HeLa cell line stably expressing YFP-Parkin plated on 35 mm coverglass #1.5 chamber dishes (MatTek). These cells were treated for 2 h with DMSO as vehicle control or with A/O. YFP was imaged with a 514-nm excitation and 520- to 570-emission filters. Representative confocal images were processed using Imaris software by contrast linear stretch only. Calculation of mitophagy based on mt-Keima signal was performed using Zeiss ZEN software as previously described^2. The average of four images from each tissue sample was taken, and the values were normalized to the average value seen in the controls, assigned the value of one.
as §1

[5] = 24 Hours Post-dose, 25 mg/kg i.p., mean

Question: Which “reduction in NDP52 level relative to vehicle treated cells” value [1] does the source give for CC(C)(C)NS(=O)(=O)c1cccc2c(NC(=O)C(Cc3ccccc3)NC(=O)c3ccccc3)cccc12 (stereo not shown) [ST-539] here?
Answer: more significant reduction

Question: And the “LC3-II/LC3-I ratio in heart” value [2]?
Answer: increase in LC3-II/LC3-I ratio

Question: What about the “LC3-II level in heart” value ([2]; *p<0.05) of the same compound?
Answer: increased levels of LC3-II

Question: And the Brain concentration [3, 5]?
Answer: 17.4 ng/g

Question: And the Heart concentration [3, 5]?
Answer: 37.0 ng/g

Question: What about the “ST-539 detected in mouse brain homogenate” value ([3]; 24 h post-dose) of the same compound?
Answer: modest concentrations

Question: And the “mitophagic flux in hippocampus” value [4]?
Answer: remains unchanged
